Reference: US8889874B2, “Imidazolone-chalcone derivatives as potential anticancer agent and process for the preparation thereof” (Council of Scientific and Industrial Research, priority 2010, dated 2014)
Like-named read-outs stand apart in the source and are kept apart here.

Legend:
Type in all cases: cell-based, human
CNS cancer cell lines = assay: NCI anticancer screen, SRB assay, panel summary; details: for GI50: Homo sapiens
Procedure, shortened: (§1)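 Compounds were tested across fifty three human cancer cell lines from nine tumour types. Each line got a dose-response curve of at least five concentrations at 10-fold dilutions, with continuous drug exposure and sulforhodamine B protein staining to estimate viability or growth.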

[1] = system: Non-small cell lung cancer cell lines; assay: NCI anticancer screen, SRB assay, panel summary; details: Homo sapiens
Procedure, shortened: as §1

Breast cancer cell lines = assay: NCI anticancer screen, SRB assay, panel summary; details: Homo sapiens
Procedure, shortened: as §1

[2] = system: Leukemia cancer cell lines; assay: NCI anticancer screen, SRB assay, panel summary; details: Homo sapiens
Procedure, shortened: as §1

Colon cancer cell lines = assay: NCI anticancer screen, SRB assay, panel summary; details: for GI50: Homo sapiens
Procedure, shortened: as §1

[3] = system: Ovarian cancer cell lines; assay: NCI anticancer screen, SRB assay, panel summary; details: Homo sapiens
Procedure, shortened: as §1

[4] = system: Prostate cancer cell lines; assay: NCI anticancer screen, SRB assay, panel summary
Procedure, shortened: as §1

[5] = system: Melanoma cancer cell lines; assay: NCI anticancer screen, SRB assay, panel summary; details: for GI50: Homo sapiens
Procedure, shortened: as §1

Renal cancer cell lines = assay: NCI anticancer screen, SRB assay, panel summary; details: Homo sapiens
Procedure, shortened: as §1

[6] = system: NCI-H23 (non-small cell lung); assay: NCI anticancer screen, SRB assay, 48 h; details: Homo sapiens
Procedure, shortened: as §1

HS 578T (breast) = assay: NCI anticancer screen, SRB assay, 48 h; details: Homo sapiens
Procedure, shortened: as §1

SK-MEL-28 (melanoma) = assay: NCI anticancer screen, SRB assay, 48 h; details: Homo sapiens
Procedure, shortened: as §1

MDA-MB-435 (melanoma) = assay: NCI anticancer screen, SRB assay, 48 h; details: Homo sapiens
Procedure, shortened: as §1

SNB-75 (CNS) = assay: NCI anticancer screen, SRB assay, 48 h; details: Homo sapiens
Procedure, shortened: as §1

A498 (renal) = assay: NCI anticancer screen, SRB assay, 48 h; details: Homo sapiens
Procedure, shortened: as §1

TD-47D (breast) = assay: NCI anticancer screen, SRB assay, 48 h; details: Homo sapiens
Procedure, shortened: as §1

HCC-2998 (colon) = assay: NCI anticancer screen, SRB assay, 48 h; details: Homo sapiens
Procedure, shortened: as §1

[7] = system: HOP-92 (non-small cell lung); assay: NCI anticancer screen, SRB assay, 48 h; details: Homo sapiens
Procedure, shortened: as §1

MDA-MB-231/ATCC (breast) = assay: NCI anticancer screen, SRB assay, 48 h; details: Homo sapiens
Procedure, shortened: as §1

[8] = system: HOP-62 (non-small cell lung); assay: NCI anticancer screen, SRB assay, 48 h; details: Homo sapiens
Procedure, shortened: as §1

[9] = system: NCI-H460 (non-small cell lung); assay: NCI anticancer screen, SRB assay, 48 h; details: Homo sapiens
Procedure, shortened: as §1

OVCAR-4 (ovarian) = assay: NCI anticancer screen, SRB assay, 48 h; details: Homo sapiens
Procedure, shortened: as §1

HCT-116 (colon) = assay: NCI anticancer screen, SRB assay, 48 h; details: Homo sapiens
Procedure, shortened: as §1

UO-31 (renal) = assay: NCI anticancer screen, SRB assay, 48 h; details: Homo sapiens
Procedure, shortened: as §1

HCT-15 (colon) = assay: NCI anticancer screen, SRB assay, 48 h; details: Homo sapiens
Procedure, shortened: as §1

[10] = system: K-562 (leukemia cell line); assay: NCI anticancer screen, SRB assay, 48 h; details: Homo sapiens
Procedure, shortened: as §1

[11] = 48 h exposure, SRB, read-out: GI50
[12] = read-out: pGI50 (-log of molar concentration causing 50% inhibition of net cell growth) (converted)

With COc1cc(/C=C/C(=O)c2cccc(-n3cc(-c4ccc(Cl)cc4)[nH]c3=O)c2)ccc1O [3f, 4-(4-chlorophenyl)-1-3-[(E)-3-(4-hydroxy-3-methoxyphenyl)-2-propenoyl]phenyl-2,3-dihydro-1H-2-imidazolone] the “mean graph midpoint (MG_MID) of Log10 LC50” value (CNS cancer cell lines; CNS panel, log of concentration leading to 50% net cell death) was 4.29, the GI50 (CNS cancer cell lines; CNS panel, log of concentration in mol/L causing 50% inhibition of net cell growth, read-out: mean graph midpoint (MG_MID) of Log10 GI50 (converted)) was 3.16 µM and the GI50 (CNS cancer cell lines; six CNS cancer cell lines, exposure at least 48 hrs, read-out: GI50, range over the panel) was 1.78 to 10.5 µM. The GI50 ([1]; Non-small cell lung panel, log of concentration in mol/L causing 50% inhibition of net cell growth, read-out: mean graph midpoint (MG_MID) of Log10 GI50 (converted)) was 3.55 µM, the LC50 ([1]; Non-small cell lung panel, log of concentration leading to 50% net cell death, read-out: mean graph midpoint (MG_MID) of Log10 LC50 (converted)) was 85.1 µM and the GI50 ([1]; nine non-small cell lung cancer cell lines, exposure at least 48 hrs, read-out: GI50, range over the panel) was 1.26 to 9.61 µM. It also gave a GI50 (Breast cancer cell lines; Breast panel, log of concentration in mol/L causing 50% inhibition of net cell growth, read-out: mean graph midpoint (MG_MID) of Log10 GI50 (converted)) of 3.24 µM, an LC50 (Breast cancer cell lines; Breast panel, log of concentration leading to 50% net cell death, read-out: mean graph midpoint (MG_MID) of Log10 LC50 (converted)) of 95.5 µM and a GI50 (Breast cancer cell lines; five breast cancer cell lines, exposure at least 48 hrs, read-out: GI50, range over the panel) of 2.3 to 4.67 µM. For the same compound, the GI50 ([2]; Leukemia panel, log of concentration in mol/L causing 50% inhibition of net cell growth, read-out: mean graph midpoint (MG_MID) of Log10 GI50 (converted)) was 1380 nM, the LC50 ([2]; Leukemia panel, log of concentration leading to 50% net cell death, read-out: mean graph midpoint (MG_MID) of Log10 LC50 (converted)) was 55 µM and the GI50 ([2]; two leukemia cancer cell lines (RPMI-8226 and K-562), exposure at least 48 hrs, read-out: GI50, range over the panel) was 1330 to 1420 nM. The “mean graph midpoint (MG_MID) of Log10 LC50” value (Colon cancer cell lines; Colon panel, log of concentration leading to 50% net cell death) was 4.53, the GI50 (Colon cancer cell lines; Colon panel, log of concentration in mol/L causing 50% inhibition of net cell growth, read-out: mean graph midpoint (MG_MID) of Log10 GI50 (converted)) was 2040 nM and the GI50 (Colon cancer cell lines; seven colon cancer cell lines, exposure at least 48 hrs, read-out: GI50, range over the panel) was 1460 to 3400 nM. It also gave a GI50 ([3]; Ovarian panel, log of concentration in mol/L causing 50% inhibition of net cell growth, read-out: mean graph midpoint (MG_MID) of Log10 GI50 (converted)) of 2750 nM, an LC50 ([3]; Ovarian panel, log of concentration leading to 50% net cell death, read-out: mean graph midpoint (MG_MID) of Log10 LC50 (converted)) of 43.7 µM and a GI50 ([3]; six ovarian cancer cell lines, exposure at least 48 hrs, read-out: GI50, range over the panel) of 1560 to 4640 nM. The GI50 ([4]; Homo sapiens, log of concentration in mol/L causing 50% inhibition of net cell growth, read-out: mean graph midpoint (MG_MID) of Log10 GI50 (converted)) was 1950 nM, the LC50 ([4]; Homo sapiens, log of concentration leading to 50% net cell death, read-out: mean graph midpoint (MG_MID) of Log10 LC50 (converted)) was 66.1 µM and the “mean graph midpoint (MG_MID) of Log10 TGI” value ([4]; log of concentration resulting in total inhibition of net cell growth) was 5.20. The GI50 ([5]; Melanoma panel, log of concentration in mol/L causing 50% inhibition of net cell growth, read-out: mean graph midpoint (MG_MID) of Log10 GI50 (converted)) was 2820 nM, the GI50 ([5]; nine melanoma cancer cell lines, exposure at least 48 hrs, read-out: GI50, range over the panel) was 1630 to 8690 nM and the “mean graph midpoint (MG_MID) of Log10 LC50” value ([5]; Melanoma panel, log of concentration leading to 50% net cell death) was 4.32. For the same compound, the GI50 (Renal cancer cell lines; Renal panel, log of concentration in mol/L causing 50% inhibition of net cell growth, read-out: mean graph midpoint (MG_MID) of Log10 GI50 (converted)) was 2950 nM, the LC50 (Renal cancer cell lines; Renal panel, log of concentration leading to 50% net cell death, read-out: mean graph midpoint (MG_MID) of Log10 LC50 (converted)) was 63.1 µM and the GI50 (Renal cancer cell lines; eight renal cancer cell lines, exposure at least 48 hrs, read-out: GI50, range over the panel) was 1670 to 6400 nM. It also gave a GI50 [6, 11] of 3.18 µM, a GI50 [6, 12] of 3.16 µM and a GI50 (HS 578T (breast); [11]) of 4.67 µM. It also gave a GI50 (HS 578T (breast); [12]) of 4.68 µM, a GI50 (SK-MEL-28 (melanoma); [11]) of 2060 nM and a GI50 (SK-MEL-28 (melanoma); [12]) of 2040 nM. For the same compound, the GI50 (MDA-MB-435 (melanoma); [11]) was 2250 nM, the GI50 (MDA-MB-435 (melanoma); [12]) was 2240 nM and the GI50 (SNB-75 (CNS); [11]) was 2750 nM. It also gave a GI50 (SNB-75 (CNS); [12]) of 2750 nM, a GI50 (A498 (renal); [11]) of 2820 nM and a GI50 (A498 (renal); [12]) of 2820 nM. The GI50 (TD-47D (breast); [11]) was 3.09 µM, the GI50 (TD-47D (breast); [12]) was 3.09 µM and the GI50 (HCC-2998 (colon); [11]) was 1850 nM. The GI50 (HCC-2998 (colon); [12]) was 1860 nM, the GI50 [7, 11] was 1260 nM and the GI50 [7, 12] was 1260 nM. The GI50 (MDA-MB-231/ATCC (breast); [11]) was 3.87 µM, the GI50 (MDA-MB-231/ATCC (breast); [12]) was 3.89 µM and the GI50 [8, 11] was 2840 nM. It also gave a GI50 [8, 12] of 2820 nM, a GI50 [9, 11] of 3.9 µM and a GI50 [9, 12] of 3.89 µM. It also gave a GI50 (OVCAR-4 (ovarian); [11]) of 4.64 µM, a GI50 (OVCAR-4 (ovarian); [12]) of 4.68 µM and a GI50 (HCT-116 (colon); [11]) of 1460 nM. The GI50 (HCT-116 (colon); [12]) was 1450 nM, the GI50 (UO-31 (renal); [11]) was 1670 nM and the GI50 (UO-31 (renal); [12]) was 1660 nM. It also gave a GI50 (HCT-15 (colon); [11]) of 1800 nM, a GI50 (HCT-15 (colon); [12]) of 1820 nM and a GI50 ([10]; K562, 48 h exposure, SRB, read-out: GI50) of 1420 nM. It also gave a GI50 ([10]; K562, read-out: pGI50 (-log of molar concentration causing 50% inhibition of net cell growth) (converted)) of 1410 nM.
